The results in this text go back to ChEMBL document CHEMBL1136984, “Orally active C-6 heteroaryl- and heterocyclyl-substituted imidazo[1,2-a]pyridine acid pump antagonists (APAs)” (Bioorg Med Chem Lett, 2009).

The conditions of series [1]: buffer, pH 7.4.
A short description of series [2]: Blood clearance in dog at 1 mg/kg/hr, iv dosed in saline containing hydroxylpropyl-beta-cyclodextrin and DMSO. It counts as ADME, organism-based, Canis lupus familiaris. Also on record: route intravenous.
Series [3] can be described thus: in vivo. The following applies: rat, blood, iv, 1 mg/kg.
A short description of series [4]: in vivo. As to conditions: rat, iv, 1 mg/kg.
The nature of series [5]: in vivo. The following applies: dog, iv, 1 mg/kg.
Series [6] in a line: in vivo. The following applies: dog, iv, 1 mg/kg. This is another data set of the same source.
Series [7] can be described thus: in vivo. As to conditions: rat, po, 1 mg/kg.
A short description of series [8]: in vivo. The following applies: dog, po, 1 mg/kg.
Series [9] can be described thus: in vivo. As to conditions: rat, iv, 1 mg/kg. This is another data set of the same source.

Molecules are shown by their SMILES.

On to `CCc1cccc(C)c1CNc1cc(C(N)=O)cn2c(C)c(C)nc12`, for which the CHI in [1] stood at 2.52.

In [1], `Cc1cccc(C)c1CNc1cc(-n2ccc(=O)cc2)cn2c(C)c(C)nc12` yielded a CHI of 1.58.

As for `Cc1cccc(CNc2cc(-n3ccccc3=O)cn3c(C)c(C)nc23)c1`, the CHI in [1] is recorded as 2.17.

In series [1], `Cc1nc2c(NCc3cccnc3)cc(-n3ccccc3=O)cn2c1C` showed a CHI of 0.73.

In series [1], `Cc1cccc(C)c1CNc1cc(-n2cc(C(N)=O)ccc2=O)cn2c(C)c(C)nc12` gave a CHI of 1.71.

For `Cc1cccc(C)c1CNc1cc(N2CCCCC2=O)cn2c(C)c(C)nc12`, the CHI in series [1] is reported as 2.79.

What is called clearance is the volume of plasma or blood freed of the substance per unit of time. The Vd is the apparent volume that relates the amount in the body to the concentration in plasma or blood. A lower Vd goes with little distribution into tissue. In general, half-life refers to the time in which the quantity being followed falls by half. For orientation: bioavailability means dose-corrected exposure relative to a reference, in per cent. Read a low bioavailability as poor availability. On to `Cc1cccc(C)c1CNc1cc(-n2cncn2)cn2c(C)c(C)nc12`, for which the clearance in [2] was 50 mL/min/kg; in series [3] it was 83 mL/min/kg. This compound came in with a CHI in series [1] of 3.07. The Vd worked out at 3.5 L/kg in [4] and 6.6 L/kg in series [5]. In addition, the half-life in [6] was 2.3 h. Moreover, the bioavailability in [7] turned out to be 21%; in series [8], 12%.

In the case of `Cc1cccc(C)c1CNc1cc(-n2ccccc2=O)cn2c(CO)c(C)nc12`, the clearance in series [2] is 10 mL/min/kg; in [3], 37 mL/min/kg. For the same compound, the Vd was 1 L/kg in series [4] and 1.1 L/kg in series [5]. Besides, the half-life was 5.3 h in [9] and 1.6 h in series [6]. In addition, the values for the bioavailability in series [7] and in series [8] were 28% and 36%, respectively.

For the compound `COc1ccccc1CNc1cc(-n2ccccc2=O)cn2c(C)c(C)nc12`, in [1], the CHI was determined as 1.93.

Compound `Cc1nc2c(NCc3ccc(F)cc3Cl)cc(-n3ccccc3=O)cn2c1C` displayed a CHI in series [1] of 2.26.

As to `Cc1cn2cc(-n3ccccc3=O)cc(NCc3c(C)cccc3C)c2n1`, in series [3], the clearance stood at 58 mL/min/kg. In [4], this compound gave a Vd of 1.8 L/kg. In series [9], the half-life was 0.5 h. For the same compound, the bioavailability in series [7] was 18%.

For the compound `Cc1cccc(C)c1COc1cc(-n2ccccc2=O)cn2c(C)c(C)nc12`, in series [1], the CHI amounted to 2.12.

In series [1], `Cc1cccc(C)c1CNc1cc(-n2cnccc2=O)cn2c(C)c(C)nc12` had a CHI of 2.33.

In series [1], `Cc1nc2c3c(c(-n4ccccc4=O)cn2c1C)CC[C@@H](c1ccccc1)N3` came in with a CHI of 3.35.

As for `Cc1nc2c(NCc3ccc(F)cc3Cl)cc(-n3cncn3)cn2c1C`, the CHI in series [1] was 2.61.

`Cc1cccc(C)c1CNc1cc(C(=O)NCCO)cn2c(C)c(C)nc12` [LINAPRAZAN] registered a CHI in series [1] of 2.14.
